Where no end group is shown, it is not given here.
Assays:
[1] = tested on: autoantibodies against oxLDL in serum samples; experiment: Peptide EIA: autoantibodies against peptides and peptide-MDA complexes; format: binding, human; set-up: key to reaction of autoantibodies (mean ±SD): absorbance at 450 nm, blank subtracted; settings: for reaction of autoantibodies (mean ±SD): plate coated with natp63, MDA and MDAp63; for amount of autoantibodies, mean absorbance after subtracting the blank: Patients (n = 20), six forms of p63 peptide antigen; for Reactivity of autoantibodies, absorbance (PEPTIDE EIA): absorbance at 450 nm, serum 1:20; for MDAp63:natp63 ratio: after subtracting the blank
Experimental: Native and MDA-modified peptides were tested always on the same plate. One half of the plate was coated with the native peptide (20 μg/ml) and the other half was coated with the MDA-modified peptide [(20 μg/ml) 100 μl/well in 100 mmol/l bicarbonate buffer (pH 9.5)]. Coated plates were incubated overnight at room temperature (RT) and then washed with an automatic washer (Wellwash 4 MK II, Labsystems Oy) three times with phosphate buffered saline (PBS) containing 0.05% Tween 20. Plates were blocked with PBS containing 1% human serum albumin (HSA) (150 μl/well) for 1 h at RT and washed as above. Serum samples were diluted 1:20 in PBS containing 0.2% HSA and 0.05% Tween 20 and pipetted 100 μl/well. Plates were incubated for 2 h at RT and washed as above. HRP-conjugated anti-human IgG (diluted 1:20 000 in the sample buffer) was added (100 μl) to each well and incubated for 1 h at RT. After washing, colour was developed by adding the peroxidase substrate (tetramethylbenzidine (TMB) as a chromagen, 100 μl/well) and incubating the plates for 30 min at room temperature in the dark. The reaction was stopped with 0.5 mol/l H2SO4 (100 μl/well) and absorbances were measured at 450 nm (Multiskan microplate reader, Labsystems Oy). The results are shown in Table 2 and are expressed as the absorbance measurement obtained for the native and the modified peptides or as the ratio between antibody binding to the native and the modified peptides after subtracting the blank control.
To find out whether autoantibodies react with the peptide, with MDA or both when peptide-MDA complexes are used as antigen, a microtiter plate was coated with natp63, MDA and MDAp63 antigen and the immunoassays performed. MDA antigen was prepared as MDAp63 antigen but without peptide and MDA was diluted for coating in the same way as MDAp63.

[2] = tested on: antibodies of patient samples against the peptides; experiment: Specificity test: peptide EIA with 0.5 M sodium chloride added to sample diluent; format: binding, human; settings: mean of 20 patient samples
Experimental: The specificity of different antigens was tested by titration of peptides. […] In addition, the specificity of antibodies against cyclic and linear peptides, p244cyc and p244, was tested by adding 0.5 M sodium chloride to sample diluent. The titer of patient samples against p244, p244cyc and p63-MDA was 19%, 38% and 47% lower (mean of 20 patient samples), respectively, when salt was added to sample diluent. It appears that antibodies against p244 have the best specificity.

[3] = tested on: antibodies of patient samples binding to coated peptide; experiment: Inhibition test: increasing concentrations of peptide added to sample diluent in peptide EIA; set-up: species or system human; settings: inhibitor 100 μg/ml
Experimental: The specificity of cyclic (p244cyc) and the corresponding linear peptide (p244) were tested in inhibition tests by adding increasing concentrations of peptides to sample diluent. P244cyc peptide inhibited with the highest inhibitor concentration (100 μg/ml), the average being 61% of the binding of 8 patient samples (FIG. 2A); 3 samples were inhibited by less than 50%. P244 inhibited with the highest inhibitor concentration (100 μg/ml), the average being 70% of the binding of 24 patient samples (FIG. 2B). 3 samples were inhibited less than 50%. P244 seemed to be more specific than p244cyc peptide. Finally, it was confirmed that the epitope of p244 is similar to p63 by coating plate with p244 and inhibiting the binding of patient samples with p63. P63 inhibited with the highest inhibitor concentration (100 μg/ml), the average being 53% of the binding of 22 patient samples (FIG. 3). 9 samples were inhibited less than 50%.

[4] = tested on: autoantibodies against oxLDL in serum samples; experiment: OxLDL EIA with copper-oxidized human LDL as antigen; format: binding; settings: for Reactivity of autoantibodies, absorbance (OxLDL EIA): absorbance at 450 nm
Experimental: Various native and modified peptides, derived from the amino acid sequence of apoB-100 (Chen et al., supra), were tested as antigens suitable for use in EIA. The peptides were modified with MDA to produce similar oxidation specific epitopes as in oxLDL. The results of peptide EIA are compared to the results of oxLDL EIA which was optimized using copper-oxidized LDL as antigen; see Närvänen et al., Free Radical Biology & Medicine, in press.

| Compound | reaction of autoantibodies (mean ±SD) ([1]; control samples, n=23) | reaction of autoantibodies (mean ±SD) ([1]; patient samples, n=16) | amount of autoantibodies, mean absorbance after subtracting the blank [1] | titer of patient samples lower when salt was added to sample diluent [2] | also measured |
| --- | --- | --- | --- | --- | --- |
| O=CCC=O [MDA, Malondialdehyde, reference compound] | 0.300±0.019 | 0.338±0.000 |  |  |  |
| MDAp63: p63 modified with MDA (LSVKAQYKKNKHRHSITNPL; also: malondialdehyde (MDA) coupled via primary amines of lysines) | 0.533±0.077 | 0.431±0.040 | 0.601— | 47% | Reactivity of autoantibodies, absorbance (PEPTIDE EIA) ([1]; healthy controls (n = 17)): 0.497 ± 0.184; MDAp63:natp63 ratio ([1]; healthy controls (n = 17)): 2.592 ± 0.751; Reactivity of autoantibodies, absorbance (PEPTIDE EIA) ([1]; patients (n = 19)): 0.418 ± 0.141; MDAp63:natp63 ratio ([1]; patients (n = 19)): 2.866 ± 0.924 |
| p244: a linear form of p63, which contains two extra amino acids (glycine and cysteine) at both ends of the peptide (CGLSVKAQYKKNKHRHSITNPLGC) |  |  | 0.995— | 19% | average inhibition of the binding of patient samples ([3]; 24 patient samples, p244): 70% |
| natLDL: native human low density lipoprotein, used as antigen |  |  |  |  | Reactivity of autoantibodies, absorbance (OxLDL EIA) ([4]; healthy controls (n = 17)): 0.351 ± 0.172; Reactivity of autoantibodies, absorbance (OxLDL EIA) ([4]; patients (n = 19)): 0.258 ± 0.170 |
| P244cyc-MDA: cyclic p63 modified with MDA (CGLSVKAQYKKNKHRHSITNPLGC; also: cyclic (mode not given here), modified with MDA) [Peptide P244cyc-MDA] |  |  | 0.521— |  |  |
| oxLDL: copper-oxidized low density lipoprotein purified from human plasma, used as antigen |  |  |  |  | oxLDL:natLDL ratio ([4]; healthy controls (n = 17)): 1.886 ± 0.689; Reactivity of autoantibodies, absorbance (OxLDL EIA) ([4]; healthy controls (n = 17)): 0.591 ± 0.221; oxLDL:natLDL ratio ([4]; patients (n = 19)): 2.535 ± 1.430; Reactivity of autoantibodies, absorbance (OxLDL EIA) ([4]; patients (n = 19)): 0.600 ± 0.287 |
| LSVKAQYKKNKHRHSITNPL [p63, 2, 20 amino acids, 4 lysines] | 0.282±0.100 | 0.222±0.041 | 0.389— |  | Reactivity of autoantibodies, absorbance (PEPTIDE EIA) ([1]; healthy controls (n = 17)): 0.216 ± 0.142; Reactivity of autoantibodies, absorbance (PEPTIDE EIA) ([1]; patients (n = 19)): 0.159 ± 0.079; average inhibition of the binding of patient samples ([3]; 22 patient samples, plate coated with p244, inhibited with p63): 53% |
| P63-PEA-MDA: p63 modified with MDA and phosphatidylethanolamine (LSVKAQYKKNKHRHSITNPL; also: modified with MDA and phosphatidylethanolamine) [Peptide P63-PEA-MDA] |  |  | 0.406— |  |  |
| p244cyc: cyclic p244 (CGLSVKAQYKKNKHRHSITNPLGC; also: cyclic (way of cyclisation not given here)) |  |  | 0.734— | 38% | average inhibition of the binding of patient samples ([3]; 8 patient samples, p244cyc): 61% |
